US5686102A, “Pharmacological composition for topical administration” (Lancaster Group AG, priority 1992, dated 1997)
Where two headings read alike, the source gives them in different places. Blank lines part the entries; values can stand above or below the compound they belong to.

Columns and labels:
[1] = Critical solubility temperature (CST) in n-hexane
Description: FIG. 1 is a diagram of the critical solubility temperatures (CST) of perfluorocarbon mixtures in n-hexane using perfluorodecalin as a starting point
FIG. 2 is a diagram of the critical solubility temperatures of perfluorocarbon mixtures in n-hexane using F-octylbromide as a starting point.

[2] = O2 solubility of fluorocarbons; type: physicochemical
[3] = Vapour pressure of fluorocarbons at 37° C.; type: physicochemical
[4] = Penetration into skin and residence time/release of labelled encapsulated fluorocarbons, animal experiments; type: in vivo
Description: By means of separate investigations, it was possible to determine the dependence of the penetration rates and the depth of penetration on the particle size of the aggregates experimentally in animal experiments using labelled encapsulated fluorocarbons. […] The choice of fluorocarbons or mixtures thereof according to their lipid solubility (represented by their critical solubility temperature CST in n-hexane) permits, as a further important criterion, the control of the residence time in the tissue. […] With the aid of fluorocarbon mixtures, in this way systems having desired CST values, i.e. lipid and membrane solubilities, with respect to the intended use can be prepared in a controlled manner.

[5] = critical solubility temperature in n-hexane

Structure (SMILES): FC(F)(F)C(F)(F)C(F)(F)C(F)(F)C=CC(F)(F)C(F)(F)C(F)(F)C(F)(F)F [Bis-F(butyl)ethene, bis-F(butyl)ethene]
- CST [1, 5]: 22.5 °C

Structure (SMILES): FC1(F)OC(F)(F)C(F)(F)N(C(F)(F)C2(F)C(F)(F)C(F)(F)C(F)(F)C(F)(F)C2(F)F)C1(F)F [F-cyclohexylmethylmorpholine]
- O2 solubility [2]: 42 ml of O2 /100 ml of Fc
- Vapour Pressure [3]: 4 mm Hg
- CST [1, 5]: 38.5 °C

Structure (SMILES): FC(F)(F)C(F)(F)C(F)(F)C(F)(F)C(F)(F)C(F)(F)OC(F)(F)C(F)(F)C(F)(F)C(F)(F)C(F)(F)C(F)(F)F [F-dihexyl ether]
- CST [1, 5]: 59 °C

Structure (SMILES): FC(F)(F)C(F)(F)C(F)(F)C(F)(F)C(F)(F)C(F)(F)F [F-hexane, perfluorohexane]
- release from the tissue ([4]; in vivo): released correspondingly more rapidly from the tissue

Structure (SMILES): FC(F)(F)C1(F)C(F)(F)C(F)(F)C(F)(F)C(F)(F)C1(F)F [F-methylcyclohexane, perfluoromethylcyclohexane]
- CST [1, 5]: 8.2 °C

Structure (SMILES): FC(F)(F)C(F)(F)C(F)(F)C(F)(F)N(C(F)(F)C(F)(F)C(F)(F)C(F)(F)F)C(F)(F)C(F)(F)C(F)(F)C(F)(F)F [F-tributylamine, perfluorotributylamine]
- CST [1, 5]: 59 °C
- residence time in the tissue ([4]; in words, related to CST / lipid solubility): relatively large residence time

- CST [1]: 43 °C
Structure (SMILES): FC(F)(F)C(F)(F)C(F)(F)N(C(F)(F)C(F)(F)C(F)(F)F)C(F)(F)C(F)(F)C(F)(F)F [F-tripropylamine]

Structure (SMILES): FC(F)(F)C(F)(F)C(F)(F)C(F)(F)C1(F)OC(F)(F)C(F)(F)C1(F)F (centres unmarked) [Perfluorobutyltetrahydrofuran, perfluorobutyltetrahydrofuran]
- O2 solubility [2]: 52 ml of O2 /100 ml of Fc
- Vapour Pressure [3]: 51 mm Hg
- CST [1, 5]: 29 °C
- release from the tissue ([4]; in words, compared with perfluorotributylamine): released correspondingly more rapidly from the tissue

- CST [1]: 22 °C
Structure (SMILES): FC1(F)C(F)(F)C(F)(F)C2(F)C(F)(F)C(F)(F)C(F)(F)C(F)(F)C2(F)C1(F)F (centres unmarked) [Perfluorodecalin, perfluorodecalin]
- release from the tissue ([4]; in vivo): released correspondingly more rapidly from the tissue

- CST [1]: -24.5 °C
Structure (SMILES): FC(F)(F)C(F)(F)C(F)(F)C(F)(F)C(F)(F)C(F)(F)C(F)(F)C(F)(F)Br [Perfluorooctyl bromide, perfluorooctyl bromide]
